{"source": "paper PMC9138505", "about": "“Small Molecule 20S Proteasome Enhancer Regulates MYC Protein Stability and Exhibits Antitumor Activity in Multiple Myeloma” (Biomedicines, 2022)", "tested_on": "RPMI-8226 cells", "assay": "Gene expression profiling, NanoString nCounter PanCancer Pathways Panel, ROSALIND analysis", "assay_type": "cell-based, human", "details": "RPMI-8226, TCH-165 samples 1-3", "method": "RPMI-8226 cells were treated with vehicle or TCH-165 (10 μM) for 4 h. Total RNA was obtained using the mirVana miRNA Isolation Kit, with phenol (Thermofisher Scientific; AM1560; Waltham, MA, USA). Total RNA was quantified by Qubit (Thermofisher Scientific; Q32855; Waltham, MA, USA). and gene expression was evaluated against the nCounter® PanCancer Pathways Panel^TM according to the standard NanoString protocol.\nData were analyzed by ROSALIND® [36] with a hyperscale architecture developed by ROSALIND, Inc. (San Diego, CA, USA). Normalization, fold changes and p-values were calculated using criteria provided by NanoString. ROSALIND follows the nCounter® Advanced Analysis protocol of dividing counts within a lane by the geometric mean of the normalizer probes from the same lane. Housekeeping probes to be used for normalization are selected based on the geNorm algorithm, as implemented in the NormqPCR R library. Fold changes and p-values are calculated using the fast method as described in the nCounter Advanced Analysis 2.0 User Manual. The p-value adjustment is performed using the Benjamini–Hochberg method of estimating false discovery rates (FDR). Clustering of genes for the final heatmap of differentially expressed genes was done using the PAM (Partitioning Around Medoids) method using the fpc R library. Hypergeometric distribution was used to analyze the enrichment of pathways, gene ontology, domain structure and other ontologies. The topGO R library was used to determine local similarities and dependencies between GO terms in order to perform Elim pruning correction. Several database sources were referenced for enrichment analysis, including Interpro [40], NCBI [41], MSigDB [42, 43], REACTOME [44], WikiPathways. Enrichment was calculated relative to a set of background genes relevant to the experiment.", "note": "Values joined by “and” are separate entries in the source; they are usually repeats but may differ in a detail not shown here. Equal entries are not always repeated.", "data": [{"smiles": "CCOC(=O)[C@]1(c2ccccc2)N=C(c2ccc(OC)cc2)N(Cc2ccccc2)[C@@H]1c1ccc(NCc2ccccc2)cc1", "note": "[TCH-165]", "values": [{"measurement": "CDKN2A normalized gene expression", "value": "7.059 and 6.817 and 7.045"}, {"measurement": "CDKN2B normalized gene expression", "value": "5.827 and 5.402 and 5.787"}, {"measurement": "CDKN2C normalized gene expression", "value": "2.401 and 2.3768 and 2.653"}, {"measurement": "CDKN2D normalized gene expression", "value": "6.667 and 6.808 and 7.091"}, {"measurement": "CEBPA normalized gene expression", "value": "4.308 and 4.029 and 4.291"}, {"measurement": "CEBPE normalized gene expression", "value": "3.723 and 3.739 and 3.291"}, {"measurement": "CHAD normalized gene expression", "value": "4.986 and 5.093 and 4.805"}, {"measurement": "CHEK1 normalized gene expression", "value": "9.816 and 9.813 (2×)"}, {"measurement": "CHEK2 normalized gene expression", "value": "8.6438 and 8.491 and 8.618"}, {"measurement": "CHUK normalized gene expression", "value": "8.745 and 8.67 and 8.685"}, {"measurement": "CIC normalized gene expression", "value": "6.793 and 6.427 and 6.731"}, {"measurement": "CLCF1 normalized gene expression", "value": "3.723 and 4.2133 and 3.184"}, {"measurement": "CNTFR normalized gene expression", "value": "4.723 and 5.093 and 4.653"}, {"measurement": "COL1A1 normalized gene expression", "value": "4.649 and 4.524 and 3.943"}, {"measurement": "COL1A2 normalized gene expression", "value": "3.401 and 3.154 and 4.0068"}, {"measurement": "COL2A1 normalized gene expression", "value": "6.015 and 6.817 and 6.494"}, {"measurement": "COL3A1 normalized gene expression", "value": "4.86 and 4.093 and 4.731"}, {"measurement": "COL4A3 normalized gene expression", "value": "6.182 and 5.798 and 6.156"}, {"measurement": "COL4A4 normalized gene expression", "value": "3.208 and 3.739 and 4.613"}, {"measurement": "COL4A5 normalized gene expression", "value": "4.571 and 3.962 and 3.876"}, {"measurement": "COL4A6 normalized gene expression", "value": "3.208 and 3.476 and 3.0682"}, {"measurement": "COL5A1 normalized gene expression", "value": "6.156 and 5.3768 and 5.823"}, {"measurement": "COL5A2 normalized gene expression", "value": "4.649 and 4.524 and 4.184"}, {"measurement": "COL11A1 normalized gene expression", "value": "4.793 and 4.029 and 4.184"}, {"measurement": "COL11A2 normalized gene expression", "value": "3.571 and 3.029 and 2.483"}, {"measurement": "COMP normalized gene expression", "value": "3.571 and 4.093 and 4.0682"}, {"measurement": "CREB5 normalized gene expression", "value": "6.467 and 6.324 and 6.437"}, {"measurement": "CREBBP normalized gene expression", "value": "5.488 and 4.855 and 5.156"}, {"measurement": "CSF1R normalized gene expression", "value": "3.401 and 3.739 and 3.653"}, {"measurement": "CSF2 normalized gene expression", "value": "3.86 and 4.029 and 3.291"}, {"measurement": "CSF3R normalized gene expression", "value": "4.571 and 3.962 and 4.39"}, {"measurement": "CSF3 normalized gene expression", "value": "4.208 and 3.739 and 3.805"}, {"measurement": "CTNNB1 normalized gene expression", "value": "11.1942 and 11.0314 and 10.9756"}, {"measurement": "CUL1 normalized gene expression", "value": "11.4237 and 11.3932 and 11.3628"}, {"measurement": "CXCL8 normalized gene expression", "value": "7.908 and 8.053 and 8.0531"}, {"measurement": "CYLD normalized gene expression", "value": "9.829 and 9.692 and 9.711"}, {"measurement": "DAXX normalized gene expression", "value": "9.74 and 9.747 and 9.706"}, {"measurement": "DDB2 normalized gene expression", "value": "8.97 and 9.039 and 9.005"}, {"measurement": "DDIT3 normalized gene expression", "value": "11.9124 and 11.8557 and 11.855"}, {"measurement": "DDIT4 normalized gene expression", "value": "9.959 and 9.961 and 9.982"}, {"measurement": "DKK1 normalized gene expression", "value": "5.259 and 4.699 and 4.769"}, {"measurement": "DKK2 normalized gene expression", "value": "5.488 and 4.657 and 4.805"}, {"measurement": "DKK4 normalized gene expression", "value": "4.986 and 4.855 and 4.975"}, {"measurement": "DLL1 normalized gene expression", "value": "4.308 and 4.029 and 3.5707"}, {"measurement": "DLL3 normalized gene expression", "value": "5.101 and 4.427 and 4.5707"}, {"measurement": "DLL4 normalized gene expression", "value": "5.401 and 4.817 and 5.211"}, {"measurement": "DNMT1 normalized gene expression", "value": "10.7929 and 10.7224 and 10.7359"}, {"measurement": "DNMT3A normalized gene expression", "value": "7.355 and 7.311 and 7.414"}, {"measurement": "DTX1 normalized gene expression", "value": "5.156 and 5.402 and 5.592"}, {"measurement": "DTX4 normalized gene expression", "value": "5.793 and 5.996 and 5.9095"}, {"measurement": "DUSP2 normalized gene expression", "value": "6.378 and 6.364 and 6.623"}, {"measurement": "DUSP4 normalized gene expression", "value": "7.667 and 7.581 and 7.494"}, {"measurement": "DUSP5 normalized gene expression", "value": "10.8611 and 10.8321 and 10.8236"}, {"measurement": "DUSP6 normalized gene expression", "value": "8.008 and 8.128 and 8.003"}, {"measurement": "DUSP8 normalized gene expression", "value": "6.876 and 6.44 and 6.56"}, {"measurement": "DUSP10 normalized gene expression", "value": "7.221 and 7.177 and 7.1906"}, {"measurement": "E2F1 normalized gene expression", "value": "9.135 and 9.126 and 9.063"}, {"measurement": "E2F5 normalized gene expression", "value": "9.349 and 9.291 and 9.221"}, {"measurement": "EFNA1 normalized gene expression", "value": "6.283 and 5.2133 and 5.39"}, {"measurement": "EFNA2 normalized gene expression", "value": "4.924 and 5.2133 and 5.0068"}, {"measurement": "EFNA3 normalized gene expression", "value": "8.052 and 8.008 and 8.0531"}, {"measurement": "EFNA5 normalized gene expression", "value": "5.649 and 4.739 and 4.943"}, {"measurement": "EGF normalized gene expression", "value": "4.86 and 4.569 and 5.0682"}, {"measurement": "EGFR normalized gene expression", "value": "5.892 and 5.524 and 5.461"}, {"measurement": "EIF4EBP1 normalized gene expression", "value": "10.6929 and 10.6602 and 10.7353"}, {"measurement": "ENDOG normalized gene expression", "value": "9.908 and 9.9873 and 9.891"}, {"measurement": "EP300 normalized gene expression", "value": "9.491 and 9.463 and 9.424"}, {"measurement": "EPHA2 normalized gene expression", "value": "3.208 and 2.891 and 1.805"}, {"measurement": "EPO normalized gene expression", "value": "5.101 and 4.324 and 4.483"}, {"measurement": "EPOR normalized gene expression", "value": "7.259 and 7.147 and 7.1271"}, {"measurement": "ERBB2 normalized gene expression", "value": "6.044 and 5.427 and 5.291"}, {"measurement": "ERCC2 normalized gene expression", "value": "6.924 and 6.657 and 6.5707"}, {"measurement": "ERCC6 normalized gene expression", "value": "6.509 and 6.581 and 6.5707"}, {"measurement": "ETS2 normalized gene expression", "value": "9.802 and 9.726 and 9.794"}, {"measurement": "ETV1 normalized gene expression", "value": "9.48 and 9.485 and 9.458"}, {"measurement": "ETV4 normalized gene expression", "value": "7.978 and 7.949 and 7.741"}, {"measurement": "ETV7 normalized gene expression", "value": "4.723 and 4.962 and 4.528"}, {"measurement": "EYA1 normalized gene expression", "value": "7.74 and 7.85 and 7.863"}, {"measurement": "EZH2 normalized gene expression", "value": "10.3563 and 10.2507 and 10.2954"}, {"measurement": "FANCA normalized gene expression", "value": "7.073 and 6.808 and 7.015"}, {"measurement": "FANCB normalized gene expression", "value": "7.62 and 7.291 and 7.576"}, {"measurement": "FANCC normalized gene expression", "value": "7.86 and 7.614 and 7.764"}, {"measurement": "FANCE normalized gene expression", "value": "7.61 and 7.608 and 7.587"}, {"measurement": "FANCF normalized gene expression", "value": "8.337 and 8.334 and 8.268"}, {"measurement": "FANCG normalized gene expression", "value": "7.571 and 7.364 and 7.478"}, {"measurement": "FANCL normalized gene expression", "value": "8.9359 and 8.968 and 8.918"}, {"measurement": "FAS normalized gene expression", "value": "6.723 and 6.719 and 6.613"}, {"measurement": "FASLG normalized gene expression", "value": "5.044 and 4.614 and 4.769"}, {"measurement": "FEN1 normalized gene expression", "value": "11.0932 and 10.9634 and 10.9666"}, {"measurement": "FGF1 normalized gene expression", "value": "4.723 and 4.524 and 5.098"}]}]}
